According to US12568972B2, “Pyridazinol compounds and derivatives, preparation methods, herbicidal compositions and applications thereof” (Qingdao Kingagroot Chemical Compound Co., Ltd., priority 2018, dated 2026):

Key:
Experiment in all cases: Post-emergence test, weed control effect
Assay type in all cases: in vivo
Conditions in all cases: after 3 weeks
[1] = system: Amaranthus retroflexus
How it was run: (§1)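 Weeds sown in soil-filled pots and sprayed at 2-3 leaf stage (2-3 weeks after sowing) with compound in acetone/Tween-80/water plus 80% vegetable oil methyl ester synergist at 1500 g/ha. After 3 weeks in the greenhouse, fresh-weight growth inhibition scored on a 0-10 scale (10 = completely dead).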

[2] = system: Rorippa indica
How it was run: as §1

[3] = system: Veronica polita
How it was run: as §1

[4] = system: Chenopodiaceae
How it was run: as §1

Cn1ncc(C#N)c1-c1nnc(C(F)(F)F)cc1O [Compound 820]
10: weed control effect (activity level), Amaranthus retroflexus ([1]; Dose 3000 g/ha) | weed control effect (activity level), Rorippa indica ([2]; Dose 3000 g/ha) | weed control effect (activity level), Veronica polita ([3]; Dose 3000 g/ha) | weed control effect (activity level), Chenopodiaceae ([4]; Dose 3000 g/ha)

CN(C)c1cc(-c2nnc(C(F)(F)F)cc2O)n(C)n1 [Compound 787]
10: weed control effect (activity level), Amaranthus retroflexus ([1]; Dose 3000 g/ha) | weed control effect (activity level), Rorippa indica ([2]; Dose 3000 g/ha) | weed control effect (activity level), Veronica polita ([3]; Dose 3000 g/ha) | weed control effect (activity level), Chenopodiaceae ([4]; Dose 3000 g/ha)

CCSc1ccc(-c2nnc(C(F)(F)F)cc2O)cn1 [Compound 236]
10: weed control effect (activity level), Amaranthus retroflexus ([1]; dose 2000 g/ha) | weed control effect (activity level), Rorippa indica ([2]; dose 2000 g/ha) | weed control effect (activity level), Veronica polita ([3]; dose 2000 g/ha) | weed control effect (activity level), Chenopodiaceae ([4]; dose 2000 g/ha)

Oc1cc(C(F)(F)F)nnc1-c1ccc(F)cc1F [Compound 732]
10: weed control effect (activity level), Amaranthus retroflexus ([1]; dose 1000 g/ha) | weed control effect (activity level), Rorippa indica ([2]; dose 1000 g/ha) | weed control effect (activity level), Veronica polita ([3]; dose 1000 g/ha) | weed control effect (activity level), Chenopodiaceae ([4]; dose 1000 g/ha)

Oc1cc(C(F)(F)F)nnc1-c1ccc(Br)nc1 [Compound 966]
10: weed control effect (activity level), Amaranthus retroflexus ([1]; Dose 3000 g/ha) | weed control effect (activity level), Rorippa indica ([2]; Dose 3000 g/ha) | weed control effect (activity level), Veronica polita ([3]; Dose 3000 g/ha) | weed control effect (activity level), Chenopodiaceae ([4]; Dose 3000 g/ha)

O=S(=O)(Oc1cc(C(F)(F)F)nnc1-c1ccc(C(F)(F)F)cc1)C1CC1 [Compound 1-122]
10: weed control effect, Amaranthus retroflexus (activity level) ([1]; Dose 3000 g/ha) | weed control effect, Rorippa indica (activity level) ([2]; Dose 3000 g/ha) | weed control effect, Veronica polita (activity level) ([3]; Dose 3000 g/ha) | weed control effect, Chenopodiaceae (activity level) ([4]; Dose 3000 g/ha)

Oc1cc(C(F)(F)F)nnc1-c1cccc(Br)c1F [Compound 48]
10: weed control effect (activity level), Amaranthus retroflexus ([1]; dose 1000 g/ha) | weed control effect (activity level), Rorippa indica ([2]; dose 1000 g/ha) | weed control effect (activity level), Veronica polita ([3]; dose 1000 g/ha) | weed control effect (activity level), Chenopodiaceae ([4]; dose 1000 g/ha)

O=C(Oc1cc(C(F)(F)F)nnc1-c1ccc(F)cc1)c1ccccc1O [Compound 1-85]
10: weed control effect, Amaranthus retroflexus (activity level) ([1]; Dose 3000 g/ha) | weed control effect, Rorippa indica (activity level) ([2]; Dose 3000 g/ha) | weed control effect, Veronica polita (activity level) ([3]; Dose 3000 g/ha) | weed control effect, Chenopodiaceae (activity level) ([4]; Dose 3000 g/ha)

Cc1ccc(F)c(-c2nnc(C(F)(F)F)cc2O)c1 [Compound 57]
10: weed control effect (activity level), Amaranthus retroflexus ([1]; dose 1000 g/ha) | weed control effect (activity level), Rorippa indica ([2]; dose 1000 g/ha) | weed control effect (activity level), Veronica polita ([3]; dose 1000 g/ha) | weed control effect (activity level), Chenopodiaceae ([4]; dose 1000 g/ha)

Oc1cc(C(F)(F)F)nnc1-c1cc(Cl)nc(Cl)c1 [Compound 218]
10: weed control effect (activity level), Amaranthus retroflexus ([1]; dose 2000 g/ha) | weed control effect (activity level), Rorippa indica ([2]; dose 2000 g/ha) | weed control effect (activity level), Veronica polita ([3]; dose 2000 g/ha) | weed control effect (activity level), Chenopodiaceae ([4]; dose 2000 g/ha)

Oc1cc(C(F)(F)F)nnc1-c1c(Cl)ccnc1F [Compound 999]
10: weed control effect (activity level), Amaranthus retroflexus ([1]; Dose 3000 g/ha) | weed control effect (activity level), Rorippa indica ([2]; Dose 3000 g/ha) | weed control effect (activity level), Veronica polita ([3]; Dose 3000 g/ha) | weed control effect (activity level), Chenopodiaceae ([4]; Dose 3000 g/ha)

Oc1cc(C(F)(F)F)nnc1-c1c(F)ccnc1Cl [Compound 1005]
10: weed control effect (activity level), Amaranthus retroflexus ([1]; Dose 3000 g/ha) | weed control effect (activity level), Rorippa indica ([2]; Dose 3000 g/ha) | weed control effect (activity level), Veronica polita ([3]; Dose 3000 g/ha) | weed control effect (activity level), Chenopodiaceae ([4]; Dose 3000 g/ha)

N#Cc1ccc(-c2nnc(C(F)(F)F)cc2O)s1 [Compound 873]
10: weed control effect (activity level), Amaranthus retroflexus ([1]; Dose 3000 g/ha) | weed control effect (activity level), Rorippa indica ([2]; Dose 3000 g/ha) | weed control effect (activity level), Veronica polita ([3]; Dose 3000 g/ha) | weed control effect (activity level), Chenopodiaceae ([4]; Dose 3000 g/ha)

CCOC(=S)Oc1cc(C(F)(F)F)nnc1-c1ccc(C)cc1 [Compound 1-155]
10: weed control effect, Amaranthus retroflexus (activity level) ([1]; Dose 3000 g/ha) | weed control effect, Rorippa indica (activity level) ([2]; Dose 3000 g/ha) | weed control effect, Veronica polita (activity level) ([3]; Dose 3000 g/ha) | weed control effect, Chenopodiaceae (activity level) ([4]; Dose 3000 g/ha)

O=C(Oc1cc(C(F)(F)F)nnc1-c1ccccc1)c1ccc2occc2c1 [Compound 1-117]
10: weed control effect, Amaranthus retroflexus (activity level) ([1]; Dose 3000 g/ha) | weed control effect, Rorippa indica (activity level) ([2]; Dose 3000 g/ha) | weed control effect, Veronica polita (activity level) ([3]; Dose 3000 g/ha) | weed control effect, Chenopodiaceae (activity level) ([4]; Dose 3000 g/ha)

Oc1cc(C(F)(F)F)nnc1-c1ccc(Cl)cc1C(F)(F)F [Compound 763]
10: weed control effect (activity level), Amaranthus retroflexus ([1]; Dose 3000 g/ha) | weed control effect (activity level), Rorippa indica ([2]; Dose 3000 g/ha) | weed control effect (activity level), Veronica polita ([3]; Dose 3000 g/ha) | weed control effect (activity level), Chenopodiaceae ([4]; Dose 3000 g/ha)

COc1ccc(-c2nnc(C(F)(F)F)cc2O)cc1[N+](=O)[O-] [Compound 768]
10: weed control effect (activity level), Amaranthus retroflexus ([1]; Dose 3000 g/ha) | weed control effect (activity level), Rorippa indica ([2]; Dose 3000 g/ha) | weed control effect (activity level), Veronica polita ([3]; Dose 3000 g/ha) | weed control effect (activity level), Chenopodiaceae ([4]; Dose 3000 g/ha)

Cn1cc(-c2nnc(C(F)(F)F)cc2O)cn1 [Compound 839]
10: weed control effect (activity level), Amaranthus retroflexus ([1]; Dose 3000 g/ha) | weed control effect (activity level), Rorippa indica ([2]; Dose 3000 g/ha) | weed control effect (activity level), Veronica polita ([3]; Dose 3000 g/ha) | weed control effect (activity level), Chenopodiaceae ([4]; Dose 3000 g/ha)
